Our source for the GI50 and TGI values is PubChem BioAssay (NCI).

Each structure is given as a SMILES string.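 A five-concentration, 48-hour dose response in 96-well plates underlies each endpoint, interpolated linearly between surrounding concentrations. The concentration for 50% growth inhibition is given as GI50. Definition used: TGI = concentration required for complete inhibition of growth.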 Some results are limits rather than exact numbers.

What all share (test): NCI-60 cell line screen, 48 h
For test [1], the system named is DU-145 prostate.
The test system of test [2] is SF-295 CNS.
The test system of test [3] is SK-MEL-5 melanoma.
Test [4] concerns OVCAR-5 ovarian.
The subject of test [5] is NCI-H460 lung.
Test [6] relates to K-562 leukemia.
The test system of test [7] is SF-268 CNS.
Test [8] deals with UACC-257 melanoma.
Test [9] relates to HOP-62 NSCLC.
In test [10] the test system is SR leukemia.

With `OCC(O)C(O)C(O)/C=N/Nc1nc2ccccc2nc1-c1ccccc1` (stereo not given), the GI50 was over 100 µM in [1]; over 100 µM in [2]; 48.5 µM in test [3]; over 100 µM in test [4]; 70.3 µM in test [5]; 68.9 µM in test [6]. In addition, the GI50 in [7] is 74.1 µM; in test [8], over 100 µM; in [9], over 100 µM. Further, the TGI in test [1], in [2], in test [3], in test [4], in test [5] and in [6] was over 100 µM each time. Further, the TGI in test [7], in test [8] and in [9] was over 100 µM each time.

As to `O=C(NCc1ccncc1)C1COc2cc(-c3cc(=O)c4ccccc4o3)ccc2O1` (stereo not given), the TGI in [10], in test [2], in test [3], in test [4], in [5] and in [6] was over 100 µM throughout. In addition, the TGI in test [8] and in test [9] was over 100 µM each time.

For the compound `C1=Nc2ccccc2C=Nc2ccccc2C=Nc2ccccc2C=Nc2ccccc21.[Cl-].[Pt+2]`, the GI50 in [3] is 18.8 µM; in [5], 25.7 µM; in test [6] it was 3.61 µM; in test [7] it was 25.1 µM; in [9], 15.1 µM. The TGI in test [3] is 48.3 µM; in [5] it was over 100 µM; in [6], 93.7 µM; in test [7], 75.9 µM; in test [9], 45.6 µM.

For `O=c1c2cccnc2ncn1CCN1CCCC1`, the TGI in test [10], in test [2], in test [3], in test [4], in test [5] and in test [6] was over 100 µM in each case. The TGI in [7] and in test [9] was over 100 µM throughout.

Take `CC(C)c1ccc(NC(=S)NC(=O)c2ccccc2)cc1`: the TGI was 70.8 µM in test [1]; 32.5 µM in test [2]; 27 µM in test [3]; over 100 µM in test [4]; 40.2 µM in test [5]; over 100 µM in test [6]. The TGI in [7] is 46.4 µM; in test [8], 37.5 µM; in test [9], over 100 µM.

Regarding `O=C1CCS/C(=N\S(=O)(=O)c2ccc(N3N=C4c5ccccc5CC4C3c3cccs3)cc2)N1C(=O)c1ccccc1` (stereo not given), the GI50 was 23.2 µM in [1]; 32.7 µM in test [2]; 2.56 µM in [3]; 25.8 µM in test [4]; 26.6 µM in [5]; 26.4 µM in [6]. In addition, the GI50 was 13.7 µM in test [7], 0.334 µM in test [8] and 31.1 µM in test [9]. The TGI was over 100 µM in [1]; over 100 µM in test [2]; 6.07 µM in [3]; 54.3 µM in test [4]; over 100 µM in test [5]; over 100 µM in [6]. The TGI in test [7] was over 100 µM; in test [8], 20.6 µM; in test [9] it was over 100 µM.

Regarding `Cc1ccc(Oc2ccc([N+](=O)[O-])cc2[N+](=O)[O-])c(C)c1`, the TGI in [2] is over 100 µM; in test [3], 50 µM; in [4] it was over 100 µM; in [5], over 100 µM; in [6], over 100 µM; in [8] it was 99.6 µM. The TGI in test [9] is over 100 µM.

As to `Cc1cc2cn3c4cccnc4[nH]c(=O)c3c2cc1C`, the GI50 in test [1] is 1.83 µM; in test [2] it was 1.51 µM; in [3] it was 1.13 µM; in test [4], 1.66 µM; in [8] it was 1.67 µM; in [9], 1.5 µM. Moreover, the TGI was 3.28 µM in test [1]; 3.26 µM in test [2]; 2.34 µM in test [3]; 3.02 µM in test [4]; 3.41 µM in [8]; 2.85 µM in test [9].

Turning to `N#C/C(=C\c1ccc(C(O)P(=O)(O)O)cc1)C(N)=O` (stereo not given), the TGI in [2], in test [3], in [5], in test [6], in [7] and in test [8] was over 100 µM each time. The compound further returned a TGI in test [9] of over 100 µM.

Regarding `CC/C=C/c1cc2cc[nH]c2c2c1C(C)C[C@@H]2C` (stereo not given in full), the TGI in test [2] was 55.9 µM; in [3], 46.4 µM; in [5], 65.3 µM; in test [6] it was 65.9 µM; in test [8], over 100 µM.

In the case of `CCOP(=O)(OCC)C1=NC=CC=CC1n1c(-c2ccccc2)nn(CC)c1=O` (stereo not given), the TGI in [10], in test [2], in test [3], in test [5], in test [7] and in test [8] was over 100 µM throughout. Moreover, in test [9], the TGI was over 100 µM.

Turning to `COc1cc2c(c(OC)c1OC)-c1ccc(OC)c(=O)cc1[C@@H](N(C)C=O)CC2`, the TGI is 0.0365 µM in [2]; 0.0401 µM in test [3]; over 100 µM in test [4]; over 100 µM in [6]; over 100 µM in test [7]; over 100 µM in test [8]. Besides, the TGI in [9] is over 100 µM.

`O=C(c1ccc(Cl)cc1)c1ccc(OCCSCCCCCCCCCCSCCOc2ccc(C(=O)c3ccc(Cl)cc3)cc2)cc1`: the TGI in test [2], in test [3], in test [4], in test [5], in test [6] and in test [7] was over 100 µM each time. Also, the TGI in [8] and in test [9] was over 100 µM throughout.

Regarding `O=[N+]([O-])c1ccc2nc3ccccc3cc2c1`, the TGI was 8.12 µM in [1]; 14.4 µM in [3]; 7.06 µM in test [4]; over 100 µM in test [5]; 8.79 µM in test [6]; 83.4 µM in test [7]. Further, the results for the TGI in test [8] and in test [9] were 5.86 µM and 6.16 µM, respectively.

Regarding `CSc1ncnc2c1CCN2`, the GI50 in test [2], in test [3], in test [7] and in [8] was over 100 µM in each case. Further, the TGI in test [2], in [3], in [7], in test [8] and in test [9] was over 100 µM each time.

Regarding `COC1=C(Br)C(=O)C2=C(C1=O)C1C3=C(C(=O)C=CC3=O)C2c2ccccc21` (stereo not given), the GI50 in test [1] was 21.4 µM; in test [2], 24.1 µM; in test [3], 16 µM; in test [4], 22.3 µM; in test [5], 33.3 µM; in test [6] it was 4.66 µM. Further, the GI50 in test [7] was 18.2 µM; in test [8] it was 38.2 µM; in [9], 25.9 µM. The TGI in test [1] is 53.8 µM; in [2], 48.9 µM; in test [3] it was 48.9 µM; in test [4] it was 98.6 µM; in test [5], over 100 µM; in [6], over 100 µM. Besides, the TGI in [7] was 59.6 µM; in test [8] it was over 100 µM; in test [9], 47.6 µM.

With `C1COCCOCCOCCOCCO1.CC(=O)[CH-]C(C)=O.CC(=O)[CH-]C(C)=O.CC(=O)[CH-]C(C)=O.[V]`, the GI50 in test [2] is 7.9 µM; in test [3], 2.47 µM; in test [5], 22.7 µM; in [6], 29.1 µM; in [7], 20.6 µM; in [8] it was 12.1 µM. Also, the TGI in [2] was 22 µM; in test [3], 12.8 µM; in test [5] it was 99.4 µM; in [6], 71.4 µM; in test [7], 65.8 µM; in test [8], 25.3 µM.

Consider `O=c1c2ccccc2nc(-c2cccc(Cl)c2)n1NCC1(O)OCC(O)C(O)C1O` (stereo not given), for which the TGI in [10], in [2], in test [4], in [5], in test [6] and in test [7] was over 100 µM throughout. Also, in [8], the TGI was over 100 µM.

Consider `Cc1cccc(C)c1NC(=O)CCc1n[nH]c(=S)o1`, for which the TGI in test [2], in [3], in test [4], in [5], in [6] and in test [7] was over 100 µM throughout. The TGI in [8] and in test [9] was over 100 µM in each case.

For `NC(CC1=CCC=CC1)C(=O)O` (stereo not given), the TGI in test [1], in [2], in [3], in [4], in test [5] and in test [6] was over 100 µM each time. Moreover, the TGI in test [7], in test [8] and in [9] was over 100 µM throughout.

Turning to `Clc1ccc(Nc2ccnc(NCCCNc3ccnc4cc(Cl)ccc34)n2)cc1`, the GI50 was 1.86 µM in test [1]; 1.55 µM in test [2]; 1.4 µM in test [3]; 1.68 µM in test [4]; 1.87 µM in [8]; 1.48 µM in test [9]. Besides, the TGI in [1] was 3.35 µM; in test [2], 2.96 µM; in [3], 2.75 µM; in test [4] it was 3.09 µM; in test [8], 3.43 µM; in test [9], 2.94 µM.

On to `COc1ccc(N(/C=C/C(=O)C(F)(F)F)CC(=O)c2ccc(Cl)c(Cl)c2)cc1`, for which the GI50 in test [1] was 11.3 µM; in [2], 14.5 µM; in test [3] it was 7 µM; in [4], 16.5 µM; in [5], 6.73 µM; in test [6] it was 4.07 µM. In addition, the figures for the GI50 in test [7], in test [8] and in [9] were 11.3 µM, 16.7 µM and 16.9 µM, respectively. Moreover, the TGI in test [1] is 24.6 µM; in test [2], 28.6 µM; in test [3], 20.4 µM; in test [4], 30.2 µM; in [5], 27.3 µM; in [6] it was over 100 µM. The TGI in test [7] came out at 30.3 µM; in [8], 35.4 µM; in [9] it was 30.9 µM.

Take `CC(=O)OC1Oc2ccccc2-c2oc(=O)c(-c3cc4ccccc4oc3=O)cc21` (stereo not given): the GI50 was 20.1 µM in [1]; 18.6 µM in test [2]; 24.8 µM in test [3]; 35 µM in test [4]; 27.8 µM in test [5]; 27.6 µM in test [6]. Moreover, the GI50 was 19.6 µM in test [7], 14.1 µM in test [8] and 18.6 µM in [9]. The TGI was 52.5 µM in [1]; 41.3 µM in test [2]; 57.8 µM in [3]; over 100 µM in test [4]; 91 µM in test [5]; over 100 µM in test [6]. In addition, the TGI in test [7] worked out at 40.9 µM; in test [8] it was 36.6 µM; in [9], 34.4 µM.

Take `CC(=O)/C=C/c1ccc(C)cc1`: the TGI in [2], in test [3], in test [4], in test [5], in test [6] and in test [7] was over 100 µM throughout. For the same compound, the TGI in test [8] and in test [9] was over 100 µM throughout.

In the case of `CC(C)CN(CC(C)C)C(=O)C1CCCC[C@@H]1C(=O)O` (stereo not given in full), the TGI in test [10], in test [2], in test [3], in test [5], in [6] and in test [7] was over 100 µM each time. Also, the TGI in test [8] and in [9] was over 100 µM in each case.

In the case of `O=C(COc1cccc(/C=C2\CSc3ccccc3C2=O)c1)c1ccc(Cl)cc1`, the GI50 in test [1] was 2.31 µM; in [2], 1.71 µM; in [3], 1.8 µM; in [4] it was 1.85 µM; in test [5] it was 2.88 µM; in [7], 2.16 µM. For the same compound, the GI50 in test [8] was 2.68 µM; in [9], 2.15 µM. In addition, the TGI in test [1] is 5.61 µM; in test [2] it was 3.44 µM; in test [3] it was 3.41 µM; in test [4], 4.08 µM; in test [5], 8.38 µM; in [7], 5.2 µM. The TGI in [8] was 6.85 µM; in test [9], 6.12 µM.
